The record followed here is patent US20220089578A1, “COMPOUNDS AS GLP-1R AGONISTS” (Terns Pharmaceuticals, Inc., priority 2020, published 2022).

Chain of human GLP-1R (P43220 24-463): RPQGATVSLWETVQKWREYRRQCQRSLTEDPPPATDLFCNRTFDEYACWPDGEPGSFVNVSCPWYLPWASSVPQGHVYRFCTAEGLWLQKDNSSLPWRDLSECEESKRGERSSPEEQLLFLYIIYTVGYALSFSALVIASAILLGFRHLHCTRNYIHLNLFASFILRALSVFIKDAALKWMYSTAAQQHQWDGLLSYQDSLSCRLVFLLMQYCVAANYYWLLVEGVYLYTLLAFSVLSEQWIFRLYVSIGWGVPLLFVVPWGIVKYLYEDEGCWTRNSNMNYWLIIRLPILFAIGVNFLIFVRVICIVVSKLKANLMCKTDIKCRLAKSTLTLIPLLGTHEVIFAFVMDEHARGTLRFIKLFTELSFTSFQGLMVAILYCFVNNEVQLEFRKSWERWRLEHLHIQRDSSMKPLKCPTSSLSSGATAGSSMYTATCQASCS

The assay deals with human GLP-1R (Homo sapiens, UniProt P43220). Nature of the assay: GLP-1R Cell Assay 1: cAMP Hunter CHO-K1 GLP1R Gs cell line, HitHunter cAMP assay. It is filed as cell-based. Particulars: Table 2; cAMP Hunter CHO-K1 GLP1R Gs cells; percent activity normalized to Exendin-4. Here is the method:
GLP-1R mediated agonist activity was determined using the cAMP Hunter CHO-K1 GLP1R Gs cell line (DiscoverX, cat# 95-0062C2), a stable CHO-K1 derived cell lines overexpressing naturally Gs coupled wild-type human GLP-1R (accession number: NM_002062.3). GLP-1R agonism in this cell line was detected by measuring cellular cAMP levels using the HitHunter cAMP assay kit (cat# 90-0075SM2), a homogenous, gain-of-signal competitive immune assay based on Enzyme Fragment Complementation (EFC) technology. In this system cellular cAMP competes with exogenous labeled cAMP (ED-cAMP) for binding to an anti-cAMP antibody. […] The luminescent signal is directly proportional to the amount of cellular cAMP.
For compound testing, cells were seeded in a total volume of 20 μL in white walled, 384-well microplates and incubated at 37° C. prior to compound testing. Prior to compound addition, cell culture media was removed by aspiration and replaced with 15 pt reagent buffer (2:1 HBSS/10 mM HEPES: cAMP XS+Ab reagent). Compounds were dissolved in DSMO and serially diluted (3-fold) prior to final dilution to 4X in assay buffer. Samples (5 μL) were added to cells and incubated at 37° C. for […] prior to 1 hour incubation with 20 pt cAMP XS+ED/CL lysis reagent and 3 hour incubation with 20 μL cAMP XS+EA reagent at room temperature. Microplates were read on a PerkinElmer Envision instrument. Compound activity was analyzed using CBIS data analysis suite (ChemInnovation). Percent activity was calculated based on duplicate assay runs and normalized to the positive control Exendin-4, a GLP-1R peptide agonist, using the following formula: […]
The effective compound concentration resulting in 50% response (EC50) was determined by non-linear regression analysis of dose-response curves.
In turn, `N#Cc1ccc2c(c1)CCN(c1ccn(C3CCN(Cc4nc5ccc(C(=O)O)cc5n4C[C@@H]4CCO4)CC3)n1)CC2` [Compound 106, (S)-2-((4-(3-(7-cyano-1,2,4,5-tetrahydro-3H-benzo[d]azepin-3-yl)-1H-pyrazol-1-yl)piperidin-1-yl)methyl)-1-(oxetan-2-ylmethyl)-1H-benzo[d]imidazole-6-carboxylic acid] yielded an EC50 of more than 500 nM. `O=C(O)c1ccc2nc(CN3CCN(c4cccc(OCC5CCS(=O)(=O)CC5)n4)CC3)n(C[C@@H]3CCO3)c2c1` [Compound 54, (S)-2-((4-(6-((1,1-dioxidotetrahydro-2H-thiopyran-4-yl)methoxy)pyridin-2-yl)piperazin-1-yl)methyl)-1-(oxetan-2-ylmethyl)-1H-benzo[d]imidazole-6-carboxylic acid]: the EC50 is more than 500 nM.

With `O=C(O)c1ccc2nc(CN3CCN(c4cccc(OCc5cc6ccccc6o5)n4)CC3)n(C[C@@H]3CCO3)c2c1` [Compound 68, (S)-2-((4-(6-(benzofuran-2-ylmethoxy)pyridin-2-yl)piperazin-1-yl)methyl)-1-(oxetan-2-ylmethyl)-1H-benzo[d]imidazole-6-carboxylic acid], the response was half-maximal at 2.03 nM (EC50). On to `O=C(O)c1ccc2nc(CN3CCN(c4cccc(OCC5CCOCC5)n4)CC3)n(C[C@@H]3CCO3)c2c1` [Compound 33, (S)-1-(oxetan-2-ylmethyl)-2-((4-(6-((tetrahydro-2H-pyran-4-yl)methoxy)pyridin-2-yl)piperazin-1-yl)methyl)-1H-benzo[d]imidazole-6-carboxylic acid], for which the half-maximal effective concentration (EC50) is more than 500 nM. Then `N#Cc1cccc2c1CCN(c1cccc(N3CCN(Cc4nc5ccc(C(=O)O)cc5n4C[C@@H]4CCO4)CC3)n1)CC2` [Compound 79, (S)-2-((4-(6-(6-cyano-1,2,4,5-tetrahydro-3H-benzo[d]azepin-3-yl)pyridin-2-yl)piperazin-1-yl)methyl)-1-(oxetan-2-ylmethyl)-1H-benzo[d]imidazole-6-carboxylic acid], with 206 nM. For `Cn1cc(COc2cccc(N3CCN(Cc4nc5ccc(C(=O)O)cc5n4C[C@@H]4CCO4)CC3)n2)cn1` [Compound 86, (S)-2-((4-(6-((1-methyl-1H-pyrazol-4-yl)methoxy)pyridin-2-yl)piperazin-1-yl)methyl)-1-(oxetan-2-ylmethyl)-1H-benzo[d]imidazole-6-carboxylic acid], the EC50 worked out at 75.3 nM. Then `CCn1cncc1Cn1c(CN2CC[C@]3(c4cccc(OCc5ccc(C#N)cc5F)n4)C[C@@H]3C2)nc2ccc(C(=O)O)cc21` (single isomer, unassigned) [Compound 121-P2], with 0.0386 nM; and `N#Cc1ccc(COc2cccc(N3CCN(Cc4nc5ccc(C(=O)O)cc5n4CC4CCS4(=O)=O)CC3)n2)c(F)c1` (single isomer, unassigned) [Compound 140-P2], with 0.17 nM; and `CN(Cc1ccc(C#N)cc1)c1cccc(N2CCN(Cc3nc4ccc(C(=O)O)cc4n3C[C@@H]3CCO3)CC2)n1` [Compound 63, (S)-2-((4-(6-((4-cyanobenzyl)(methyl)amino)pyridin-2-yl)piperazin-1-yl)methyl)-1-(oxetan-2-ylmethyl)-1H-benzo[d]imidazole-6-carboxylic acid], with 54.5 nM.

On to `N#Cc1ccc2c(c1)CCCN2c1cccc(N2CCN(Cc3nc4ccc(C(=O)O)cc4n3C[C@@H]3CCO3)CC2)n1` [Compound 76, (S)-2-((4-(6-(6-cyano-3,4-dihydroquinolin-1(2H)-yl)pyridin-2-yl)piperazin-1-yl)methyl)-1-(oxetan-2-ylmethyl)-1H-benzo[d]imidazole-6-carboxylic acid], for which the EC50 was more than 500 nM. Then `O=C(O)c1ccc2nc(CN3CC[C@]4(c5cccc(OCc6ccccc6)n5)C[C@@H]4C3)n(C[C@@H]3CCO3)c2c1` [Compound 97, 2-(((1S,6R)-6-(6-(benzyloxy)pyridin-2-yl)-3-azabicyclo[4.1.0]heptan-3-yl)methyl)-1-(((S)-oxetan-2-yl)methyl)-1H-benzo[d]imidazole-6-carboxylic acid], with 18.6 nM; and `O=C(O)c1ccc2nc(CN3CCN(c4cccc(OCc5ccc(Cl)cn5)n4)CC3)n(C[C@@H]3CCO3)c2c1` [Compound 58, (S)-2-((4-(6-((5-chloropyridin-2-yl)methoxy)pyridin-2-yl)piperazin-1-yl)methyl)-1-(oxetan-2-ylmethyl)-1H-benzo[d]imidazole-6-carboxylic acid], with 0.221 nM.

As for `Cc1cc(OCc2ccccc2)nn1C1CCN(Cc2nc3ccc(C(=O)O)cc3n2C[C@@H]2CCO2)CC1` [Compound 21, (S)-2-((4-(3-(benzyloxy)-5-methyl-1H-pyrazol-1-yl)piperidin-1-yl)methyl)-1-(oxetan-2-ylmethyl)-1H-benzo[d]imidazole-6-carboxylic acid], the EC50 is 2770 nM. Then `C[C@@H]1c2ccc(C#N)cc2CCN1c1cccc(N2CCN(Cc3nc4ccc(C(=O)O)cc4n3C[C@@H]3CCO3)CC2)n1` [Compound 83], with 229 nM; and `N#Cc1cc(F)c2c(c1)CCN(c1cccc(N3CCN(Cc4nc5ccc(C(=O)O)cc5n4C[C@@H]4CCO4)CC3)n1)C2` [Compound 73, (S)-2-((4-(6-(6-cyano-8-fluoro-3,4-dihydroisoquinolin-2(1H)-yl)pyridin-2-yl)piperazin-1-yl)methyl)-1-(oxetan-2-ylmethyl)-1H-benzo[d]imidazole-6-carboxylic acid], with 1.43 nM; and `O=C(O)c1ccc2nc(CN3CCN(c4ccc5ncn(Cc6ccccc6)c5n4)CC3)n(C[C@@H]3CCO3)c2c1` [Compound 28, (S)-2-((4-(3-benzyl-3H-imidazo[4,5-b]pyridin-5-yl)piperazin-1-yl)methyl)-1-(oxetan-2-ylmethyl)-1H-benzo[d]imidazole-6-carboxylic acid], with more than 500 nM. The figure for `CS(=O)(=O)N1CC(COc2cccc(N3CCN(Cc4nc5ccc(C(=O)O)cc5n4C[C@@H]4CCO4)CC3)n2)C1` [Compound 56, (S)-2-((4-(6-((1-(methylsulfonyl)azetidin-3-yl)methoxy)pyridin-2-yl)piperazin-1-yl)methyl)-1-(oxetan-2-ylmethyl)-1H-benzo[d]imidazole-6-carboxylic acid] is more than 500 nM; for `N#Cc1ccc(COc2ccn(C3CCN(Cc4nc5ccc(C(=O)O)cc5n4C[C@@H]4CCO4)CC3)n2)c(F)c1` [Compound 92, (S)-2-((4-(3-((4-cyano-2-fluorobenzyl)oxy)-1H-pyrazol-1-yl)piperidin-1-yl)methyl)-1-(oxetan-2-ylmethyl)-1H-benzo[d]imidazole-6-carboxylic acid] it is 8.35 nM. `O=C(O)c1ccc2nc(CN3CCC(n4nccc4COc4ccccc4)CC3)n(C[C@@H]3CCO3)c2c1` (single isomer, unassigned) [Compound 26-P2] gave an EC50 of more than 500 nM. Then `C[C@@H]1COC[C@@H](N2CCC(c3cccc(OCc4ccc(C#N)cc4F)n3)CC2)c2nc3ccc(C(=O)O)cc3n21` [Compound 96, (1R,5S)-5-(4-(6-((4-cyano-2-fluorobenzyl)oxy)pyridin-2-yl)piperidin-1-yl)-1-methyl-1,2,4,5-tetrahydrobenzo[4,5]imidazo[1,2-d][1,4]oxazepine-9-carboxylic acid], with 78.1 nM.
